In patent publication US5658935A, “Heterocycles, their preparation and their use” (Hoechst Aktiengesellschaft, priority 1993, dated 1997):
pIC50, pKi: −log10 of the molar value. Where two headings read alike, the source gives them in different places.

Experiments:
[1] = tested on: gel-filtered human platelets; assay: Inhibition of the aggregation of gel-filtered human platelets after ADP or thrombin stimulation; format: cell-based; details: Platelet
Description: (§1) The compounds are tested in particular for their inhibitory effect on blood platelet aggregation and the adhesion of fibrinogen to blood platelets. Gel-filtered blood platelets from human donor blood are used, which are activated with ADP or thrombin.
As a functional test, the inhibition of the aggregation of gel-filtered human platelets is measured after ADP or thrombin stimulation by the compounds according to the invention. The IC50 value of the inhibition is indicated (reference: G. A. Marguerie et al., J. Biol. Chem. 254 (1979), 5357-5363).
(§2) On testing of the inhibition of fibrinogen binding and the inhibition of aggregation, the following results are obtained for the compounds of the examples which follow: […]

[2] = target: T1, fibrinogen receptor (glycoprotein IIb/IIIa) (Homo sapiens, UniProt P05106+P08514); assay: Inhibition of the binding of 125I-fibrinogen to its receptor (glycoprotein IIb/IIIa) on intact, gel-filtered human platelets; details: after stimulation with ADP (10 μM)
T1 construct: on intact, gel-filtered human platelets; from tissue; host or cells: gel-filtered blood platelets from human donor blood
Description: as §1
The inhibition of the binding of fibrinogen to its receptor (glycoprotein IIb/IIIa) on intact, gel-filtered human platelets by the compounds according to the invention is tested. The Ki value of the inhibition of binding of […] after stimulation with ADP (10 μM) is indicated. (Reference: J. S. Bennett and G. Vilaire, J. Clin. Invest. 64 (1979) 1393-1401; E. Kornecki et al., J. Biol. Chem. 256 (1981), 5695-5701; G. A. Marguerie et al., J. Biol. Chem. 254 (1979) 5357-5363; G. A. Marguerie et al., J. Biol. Chem. 255 (1980) 154-161.)
as §2

[3] = ADP stimulation, read-out: Inhibition of platelet aggregation, ADP (IC50)
[4] = thrombin stimulation, read-out: Inhibition of platelet aggregation, thrombin (IC50)

T1 sequence (P08514 32-887 limits assumed): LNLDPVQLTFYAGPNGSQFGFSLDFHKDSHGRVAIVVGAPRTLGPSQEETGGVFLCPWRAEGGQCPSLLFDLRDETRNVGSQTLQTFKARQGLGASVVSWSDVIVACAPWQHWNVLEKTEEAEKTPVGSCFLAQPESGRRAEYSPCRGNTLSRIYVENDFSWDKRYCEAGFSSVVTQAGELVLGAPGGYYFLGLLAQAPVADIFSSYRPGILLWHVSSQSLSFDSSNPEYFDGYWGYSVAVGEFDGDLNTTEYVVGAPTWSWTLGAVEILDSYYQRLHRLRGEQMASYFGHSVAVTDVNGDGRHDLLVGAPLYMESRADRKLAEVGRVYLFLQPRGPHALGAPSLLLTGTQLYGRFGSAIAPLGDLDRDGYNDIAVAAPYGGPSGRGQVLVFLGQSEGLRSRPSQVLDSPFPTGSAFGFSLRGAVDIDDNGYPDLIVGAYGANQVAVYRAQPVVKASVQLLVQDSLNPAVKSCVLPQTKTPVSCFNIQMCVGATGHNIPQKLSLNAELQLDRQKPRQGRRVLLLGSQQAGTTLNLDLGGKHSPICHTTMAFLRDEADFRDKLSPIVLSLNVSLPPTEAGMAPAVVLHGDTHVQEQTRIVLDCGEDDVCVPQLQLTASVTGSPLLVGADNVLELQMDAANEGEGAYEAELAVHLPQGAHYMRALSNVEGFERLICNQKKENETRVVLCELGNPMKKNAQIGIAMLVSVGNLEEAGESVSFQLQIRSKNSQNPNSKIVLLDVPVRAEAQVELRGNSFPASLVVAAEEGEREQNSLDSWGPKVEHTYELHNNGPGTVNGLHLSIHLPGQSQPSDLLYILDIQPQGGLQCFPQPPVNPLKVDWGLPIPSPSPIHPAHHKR
T1 sequence (P08514 891-1039 limits assumed): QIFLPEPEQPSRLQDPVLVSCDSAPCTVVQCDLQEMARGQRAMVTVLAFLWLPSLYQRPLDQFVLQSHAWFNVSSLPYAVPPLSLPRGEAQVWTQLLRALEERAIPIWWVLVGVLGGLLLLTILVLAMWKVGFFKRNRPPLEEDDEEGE
T1 sequence (P05106 27-788): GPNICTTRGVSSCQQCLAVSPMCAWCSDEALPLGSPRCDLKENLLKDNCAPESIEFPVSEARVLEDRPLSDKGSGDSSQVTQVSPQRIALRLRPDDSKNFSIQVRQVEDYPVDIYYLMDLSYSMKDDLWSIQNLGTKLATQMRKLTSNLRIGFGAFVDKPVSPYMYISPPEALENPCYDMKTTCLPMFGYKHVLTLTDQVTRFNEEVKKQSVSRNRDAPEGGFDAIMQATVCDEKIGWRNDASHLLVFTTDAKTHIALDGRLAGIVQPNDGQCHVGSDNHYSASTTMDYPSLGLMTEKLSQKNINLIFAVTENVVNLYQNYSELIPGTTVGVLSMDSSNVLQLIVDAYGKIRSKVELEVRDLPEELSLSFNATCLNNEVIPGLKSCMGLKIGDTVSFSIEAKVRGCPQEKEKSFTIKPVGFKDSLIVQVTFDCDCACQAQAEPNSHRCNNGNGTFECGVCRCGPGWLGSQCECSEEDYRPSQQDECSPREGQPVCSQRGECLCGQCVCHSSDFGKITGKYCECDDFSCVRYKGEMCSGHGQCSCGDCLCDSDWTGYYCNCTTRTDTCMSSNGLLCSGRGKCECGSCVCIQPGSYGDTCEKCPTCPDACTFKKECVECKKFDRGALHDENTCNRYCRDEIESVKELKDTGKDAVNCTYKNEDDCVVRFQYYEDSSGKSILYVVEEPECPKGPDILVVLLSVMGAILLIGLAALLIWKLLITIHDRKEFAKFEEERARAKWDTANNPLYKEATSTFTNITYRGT

| SMILES | pIC50 [1, 3] | pIC50 [1, 4] | pKi [2] |
| --- | --- | --- | --- |
| N=C(N)c1ccc(CC2CC(=O)N(CC(=O)N[C@@H](CC(=O)O)C(=O)N[C@H](C(=O)O)c3ccccc3)C2=O)cc1 (stereo partly drawn) [Example 1, {3-[4-(Aminoiminomethyl)benzyl]-2,5-dioxopyrrolidin-1-yl}acetyl-L-aspartyl-L-phenylglycine] | 6.70 | 7.05 | 7.37 |
| COC(=O)C(CCc1ccccc1)NC(=O)CN1C(=O)CC(Cc2ccc(C(=N)N)cc2)C1=O (racemic) [Example 13, {3-[4-(Aminoiminomethyl)benzyl]-2,5-dioxopyrrolidin-1-yl}acetyl-D,L-homophenylalanine methyl ester] | 4.00 | 4.00 | – |
| CC(C)OC(=O)C[C@H](NC(=O)CN1C(=O)CC(Cc2ccc(C(=N)N)cc2)C1=O)C(=O)N[C@H](C(=O)OC(C)C)c1ccccc1 (stereo partly drawn) [Example 14, {3-[4-(Aminoiminomethyl)benzyl]-2,5-dioxopyrrolidin-1-yl}acetyl-L-(β-isopropyl)aspartyl-L-phenylglycine isopropyl ester] | 4.70 | 4.46 | – |
| COC(=O)[C@H](Cc1c[nH]c2ccccc12)NC(=O)CN1C(=O)CC(Cc2ccc(C(=N)N)cc2)C1=O (stereo partly drawn) [Example 12, {3-[4-(Aminoiminomethyl)benzyl]-2,5-dioxopyrrolidin-1-yl}acetyl-L-tryptophan methyl ester] | 4.00 | 4.10 | – |

Second part, the molecule after the results:

| pIC50 [1, 3] | pIC50 [1, 4] | pKi [2] | SMILES |
| --- | --- | --- | --- |
| 4.70 | 5.05 | – | N=C(N)c1ccc(CC2CC(=O)N(CC(=O)NC(CC(=O)O)c3cccc(O)c3)C2=O)cc1 (racemic) [Example 16, 3-(R,S)-3-<{3-[4-(Aminoiminomethyl)benzyl]-2,5-dioxopyrrolidin-1-yl}acetamido>-3-(3-hydroxyphenyl)propionate] |
| 4.00 | 4.00 | – | N=C(N)c1ccc(CC2CC(=O)N(CC(=O)NC(CCc3ccccc3)C(=O)O)C2=O)cc1 (racemic) [Example 17, {3-[4-(Aminoiminomethyl)benzyl]-2,5-dioxopyrrolidin-1-yl}acetyl-D,L-homophenylalanine] |
| 5.40 | 6.00 | – | O=C(O)C[C@H](NC(=O)CN1C(=O)CC(CC2CCNCC2)C1=O)C(=O)N[C@H](C(=O)O)c1ccccc1 (stereo partly shown) [Example 19] |
| 4.00 | 4.15 | – | N=C(N)c1ccc(CC2CC(=O)N(CC(=O)N[C@@H](Cc3c[nH]c4ccccc34)C(=O)O)C2=O)cc1 (stereo partly drawn) [Example 18, {3-[4-(Aminoiminomethyl)benzyl]-2,5-dioxopyrrolidin-1-yl}acetyl-L-tryptophan] |
| 3.70 | 3.70 | – | COC(=O)CC(NC(=O)CN1C(=O)CC(Cc2ccc(C(=N)N)cc2)C1=O)c1cccc(O)c1 (racemic) [Example 15, Methyl 3-(R,S)-3-<{3-[4-(aminoiminomethyl)benzyl]-2,5-dioxopyrrolidin-1-yl}acetamido>-3-(3-hydroxyphenyl)propionate] |
